Test results from ChEMBL document CHEMBL3137667, “[Drug-induced liver injury; fourteenth updated edition of the bibliographic database of liver injuries and related drugs]” (Gastroenterol Clin Biol, 2004).

Tests used:
[1] = human
[2] = Proposed mechanism(s) of liver damage. [column 'MEC' in source]; details: human
[3] = human; remark: listed apart in the source
[4] = human; remark: listed apart in the source
[5] = human, serum, 4383 h
[6] = Highest frequency of acute liver toxicity observed during clinical trials, expressed as a percentage. [column '% AIGUE' in source]; details: human
[7] = human; remark: listed apart in the source
[8] = Highest frequency of moderate liver toxicity observed during clinical trials, expressed as a percentage. [column '% BIOL' in source]; details: human
[9] = Presence of at least one case with successful reintroduction. [column 'REINT' in source]; details: human
[10] = human; remark: listed apart in the source
[11] = Times to onset, minimal and maximal, observed in the indexed observations. [column 'DELAI' in source]; details: human
[12] = human; remark: listed apart in the source
[13] = human; remark: listed apart in the source
[14] = human, serum
[15] = human; remark: listed apart in the source
[16] = Comments (NB not yet translated). [column 'COMMENTAIRES' in source]; details: human
[17] = human; remark: listed apart in the source
[18] = human, serum; remark: listed apart in the source
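Wherever Hepatotoxicity (association with vascular disease) is given: count of indexed literature references reporting vascular liver injury in humans, e.g. peliosis hepatitis, hepatic veno-occlusive disease or Budd-Chiari syndrome.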
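Wherever Hepatotoxicity (benign tumour) is given: value is a count of indexed literature references citing a benign tumour confirmed by histopathology.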
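Wherever Hepatotoxicity (choleostasis) is given: human cholestatic liver injury, shown by histopathology or by peak ALT or AST elevation over alkaline phosphatase ratio below 2, value counts indexed literature reports.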
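Wherever Hepatotoxicity (chronic liver disease) is given: chronic liver injury confirmed by histopathology or persistently raised serum aminotransferase activity beyond 6 months, value given as the count of indexed literature references.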
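Wherever Hepatotoxicity (cirrhosis) is given: value is a count of indexed literature references reporting cirrhosis confirmed by histopathology.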
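Wherever Hepatotoxicity (cytolytic) is given: human cytolytic liver injury, shown by histopathology or by a ratio above 5 of peak ALT or AST elevation to alkaline phosphatase elevation, value counts indexed references.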
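Wherever Hepatotoxicity (granulomatous hepatitis) is given: value is a count of indexed literature references reporting granulomatous liver disease confirmed by histopathology.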
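Wherever Hepatotoxicity (malignant tumour) is given: malignant tumour confirmed by histopathology, value gives the count of indexed literature references reporting it.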
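Wherever Hepatotoxicity (severe hepatitis) is given: human clinical data: severe hepatitis, meaning potentially life-threatening liver failure or clinically observed cases, the value counts how many indexed literature references report it.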
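Wherever Hepatotoxicity (steatosis) is given: steatosis confirmed by histopathology, value is the count of indexed references.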

SMILES	Hepatotoxicity (severe hepatitis) [1]	Hepatotoxicity (mechanism) [2]	Hepatotoxicity (granulomatous hepatitis) [3]	Hepatotoxicity (association with vascular disease) [4]	Hepatotoxicity (chronic liver disease) [5]	Hepatotoxicity (acute) [6]	Hepatotoxicity (steatosis) [7]	Hepatotoxicity (moderate) [8]	Hepatotoxicity (successful reintroduction) [9]	Hepatotoxicity (benign tumour) [10]	Hepatotoxicity (time to onset) [11]	Hepatotoxicity (cytolytic) [12]	Hepatotoxicity (choleostasis) [13]	Hepatotoxicity (acute) [14]	Hepatotoxicity (cirrhosis) [15]	Hepatotoxicity (comment) [16]	Hepatotoxicity (malignant tumour) [17]	Hepatotoxicity (moderate) [18]	further results
CC1(C)S[C@@H]2[C@H](NC(=O)[C@H](N)c3ccccc3)C(=O)N2[C@H]1C(=O)O [AMPICILLIN]	1	Allergic	0	0	0	0%	0	20%	yes	0	2 days - 2 weeks	3	4	9	0	#CBP CHOLECYSTITE_ACALCULEUSE	0	7	–
CCc1oc2ccccc2c1C(=O)c1ccc(O)cc1 [BENZARONE]	2	Allergic	0	0	3	0%	0	0%	yes	0	2 weeks - 2 years	3	0	5	1	AC_ANTI-ML/-N	0	0	–
NC(=O)N1c2ccccc2C=Cc2ccccc21 [CARBAMAZEPINE]	–	Allergic, Reactive metabolite	12	0	4	–	2	–	yes	0	1 day - 8 years	38	41	73	1	AC_ANTI-M/-N/-ML CHOLANGITE DUCTOPENIE #CBP REACTIVATION_HSV6	1	40	Hepatotoxicity (severe hepatitis) ([1]; Liver): 10; Hepatotoxicity (acute) ([6]; Liver): 0.2%; Hepatotoxicity (moderate) ([8]; Liver): 23.8%
CC1(C)S[C@@H]2[C@H](NC(=O)C(C(=O)O)c3ccccc3)C(=O)N2[C@H]1C(=O)O (some centres not stated) [CARBENICILLIN]	0	Dose-dependant	0	0	0	0.7%	0	56%	yes	0	4 days - 3 months	5	0	5	0	RC/TICARCILLINE	0	13	–
CCOC(=O)n1ccn(C)c1=S [CARBIMAZOLE]	3	Allergic	1	0	0	0%	2	0%	yes	0	1 day - 5 years	5	14	18	0	RC/METHIMAZOLE/BENZYLTHIOURACILE	0	2	–
CC(=O)OCC1=C(C(=O)O)N2C(=O)[C@@H](NC(=O)CSc3ccncc3)[C@H]2SC1 [CEPHAPIRIN]	0	Allergic	0	0	0	0%	0	0%	yes	0	1 week	0	1	1	0	RC/CEFALOTINE	0	0	–
O=C(O)COCCN1CCN(C(c2ccccc2)c2ccc(Cl)cc2)CC1 (configuration not stated) [CETIRIZINE]	–	Allergic	0	0	0	–	0	–	yes	0	1 day - 2 years	4	1	5	0	AC_ANTI-MFR1	0	1	Hepatotoxicity (severe hepatitis) ([1]; Liver): 0; Hepatotoxicity (acute) ([6]; Liver): 0%; Hepatotoxicity (moderate) ([8]; Liver): 3.8%
O=C(O)CCCc1ccc(N(CCCl)CCCl)cc1 [CHLORAMBUCIL]	1	Allergic	0	0	1	4.8%	0	5.3%	yes	0	2 weeks - 25 months	4	3	7	1	PERICHOLANGITE REACTIVATION_HVB	1	1	–
CCCNC(=O)NS(=O)(=O)c1ccc(Cl)cc1 [CHLORPROPAMIDE]	1	Allergic, Dose-dependant	4	0	0	0.5%	0	25%	yes	0	2 weeks - 2 years	9	29	34	0	RC/TOLBUTAMIDE/TOLAZAMIDE #CBP	0	3	–
